Test results taken from the supplement of paper PMC10307832.

What was measured:
Experiment in all cases: relative viability (nuclei count vs DMSO), 5 days (fraction); higher = more cells survive
Obatoclax + Luminespib = compound: COC1=CC(c2cc3ccccc3[nH]2)=N/C1=C\c1[nH]c(C)cc1C [Obatoclax] + CCNC(=O)c1noc(-c2cc(C(C)C)c(O)cc2O)c1-c1ccc(CN2CCOCC2)cc1 [Luminespib] (partner 0.01 µM)
In short: (§1)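 Relative viability is defined as nuclei in treated wells over nuclei in vehicle wells. Duplicate plates were run and medians reported. Lung cancer cell lines in 1536-well plates were dosed by pin tool one day after seeding, with one drug or with a fixed anchor-drug dose plus five library-drug doses (not always all listed) in √10 steps, and nuclei were counted after 5 days.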

[1] = compound: CC1=CC(=NN1)NC2=CC(=NC(=N2)/C=C/C3=CC=CC=C3)N4CCN(CC4)C + CC(=O)c1c(C)c2cnc(Nc3ccc(N4CCNCC4)cn3)nc2n(C2CCCC2)c1=O [Palbociclib] (partner 0.5 µM)
In short: as §1

Bortezomib + Tozasertib = compound: CC(C)C[C@H](NC(=O)[C@H](Cc1ccccc1)NC(=O)c1cnccn1)B(O)O [Bortezomib] + Cc1cc(Nc2cc(N3CCN(C)CC3)nc(Sc3ccc(NC(=O)C4CC4)cc3)n2)n[nH]1 [Tozasertib] (partner 0.1 µM)
In short: as §1

Bortezomib + Pemetrexed = compound: CC(C)C[C@H](NC(=O)[C@H](Cc1ccccc1)NC(=O)c1cnccn1)B(O)O [Bortezomib] + Nc1nc2[nH]cc(CCc3ccc(C(=O)N[C@@H](CCC(=O)O)C(=O)O)cc3)c2c(=O)[nH]1 [Pemetrexed] (partner 0.2 µM)
In short: as §1

Row | Cell Line | relative viability (Obatoclax + Luminespib; first compound 0.01 µM) | relative viability (Obatoclax + Luminespib; first compound 0.03162 µM) | relative viability (Obatoclax + Luminespib; first compound 0.1 µM) | relative viability (Obatoclax + Luminespib; first compound 0.3162 µM) | relative viability (Obatoclax + Luminespib; first compound 1 µM) | relative viability ([1]; first compound 0.08 µM) | relative viability ([1]; first compound 0.253 µM) | relative viability ([1]; first compound 0.8 µM) | relative viability ([1]; first compound 2.53 µM) | relative viability ([1]; first compound 8 µM) | relative viability (Bortezomib + Tozasertib; first compound 0.0002 µM) | relative viability (Bortezomib + Tozasertib; first compound 0.000632 µM) | relative viability (Bortezomib + Tozasertib; first compound 0.002 µM) | relative viability (Bortezomib + Tozasertib; first compound 0.006325 µM) | relative viability (Bortezomib + Tozasertib; first compound 0.02 µM) | relative viability (Bortezomib + Pemetrexed; first compound 0.0002 µM) | relative viability (Bortezomib + Pemetrexed; first compound 0.000632 µM) | relative viability (Bortezomib + Pemetrexed; first compound 0.002 µM) | relative viability (Bortezomib + Pemetrexed; first compound 0.006325 µM) | relative viability (Bortezomib + Pemetrexed; first compound 0.02 µM)
1 | NCI-H727 | 0.278 | 0.344 | 0.347 | 0.316 | 0.342 | 0.641 | 0.628 | 0.672 | 0.691 | 0.409 | 0.688 | 0.775 | 0.606 | 0.394 | 0.162 |  |  |  |  | 
2 | NCI-H1944 | 0.794 | 0.66 | 0.735 | 0.75 | 0.636 | 0.373 | 0.341 | 0.338 | 0.264 | 0.189 | 0.234 | 0.248 | 0.247 | 0.195 | 0.136 | 0.564 | 0.546 | 0.636 | 0.47 | 0.151
3 | NCI-H1437 | 1.09 | 1.17 | 1.04 | 0.983 | 0.956 | 0.304 | 0.317 | 0.307 | 0.231 | 0.152 | 0.405 | 0.405 | 0.403 | 0.114 | 0.118 | 0.284 | 0.301 | 0.351 | 0.172 | 0.157
4 | NCI-H441 | 0.416 | 0.316 | 0.278 | 0.223 | 0.236 | 0.169 | 0.214 | 0.203 | 0.115 | 0.103 | 0.66 | 0.799 | 0.383 | 0.186 | 0.191 | 0.248 | 0.244 | 0.253 | 0.104 | 0.118
5 | EMC-BAC-2 | 1.2 | 1.19 | 1.16 | 1.08 | 1.02 | 0.519 | 0.543 | 0.504 | 0.454 | 0.273 | 0.249 | 0.274 | 0.403 | 0.171 | 0.174 | 0.415 | 0.44 | 0.443 | 0.326 | 0.266
6 | NCI-H647 | 0.128 | 0.186 | 0.179 | 0.21 | 0.114 | 0.429 | 0.365 | 0.332 | 0.115 | 0.0496 | 0.297 | 0.19 | 0.203 | 0.0209 | 0.0248 | 0.17 | 0.199 | 0.134 | 0.0326 | 0.0194
7 | CAL-12T | 0.493 | 0.292 | 0.273 | 0.122 | 0.118 | 0.412 | 0.335 | 0.466 | 0.185 | 0.119 | 0.322 | 0.285 | 0.358 | 0.193 | 0.106 | 1.25 | 1.26 | 1.24 | 1.15 | 0.123
8 | NCI-H1792 | 0.419 | 0.474 |  | 0.376 | 0.394 | 0.649 | 0.751 | 0.684 | 0.559 | 0.155 |  |  |  |  |  | 0.656 | 0.837 | 0.827 | 0.4 | 0.057
9 | H3255 | 0.903 | 0.823 | 0.899 | 0.88 | 0.806 | 0.322 | 0.319 | 0.345 | 0.313 | 0.267 | 0.783 | 0.589 | 0.564 | 0.184 | 0.243 | 0.6 | 0.603 | 0.479 | 0.378 | 0.344
10 | HCC-78 |  |  |  |  |  | 0.469 | 0.439 | 0.546 | 0.398 | 0.338 | 0.488 | 0.331 | 0.41 | 0.236 | 0.209 | 0.786 | 0.89 | 0.932 | 0.887 | 0.902
11 | NCI-H2405 | 0.606 | 0.67 |  | 0.782 | 0.735 | 0.553 | 0.555 | 0.521 | 0.411 | 0.174 | 0.715 | 0.804 | 0.629 | 0.23 | 0.153 | 1.02 | 0.792 | 1.11 | 0.121 | 0.14
12 | NCI-H3122 | 0.0984 | 0.0854 | 0.0999 | 0.0772 | 0.0894 | 0.207 | 0.19 | 0.224 | 0.174 | 0.165 | 0.388 | 0.43 | 0.266 | 0.153 | 0.088 | 0.2 | 0.202 | 0.195 | 0.171 | 0.117
13 | NCI-H1563 | 0.519 | 0.528 | 0.529 | 0.503 | 0.517 |  |  |  |  |  |  |  |  |  |  | 0.885 | 0.848 | 0.744 | 0.809 | 0.575
14 | HCC-44 | 1.07 | 0.992 | 0.658 | 0.65 | 0.167 | 0.984 | 0.946 | 0.952 | 1.01 | 0.644 | 0.887 |  | 0.305 | 0.161 | 0.221 | 0.674 | 0.723 | 0.615 | 0.631 | 0.256
15 | PC-3 [JPC-3] | 0.652 | 0.606 | 0.742 | 0.683 | 0.745 | 0.537 | 0.587 | 0.54 | 0.529 | 0.491 | 0.827 | 0.898 | 0.442 | 0.169 | 0.125 | 1.02 | 1.14 | 0.727 | 0.196 | 0.184
16 | NCI-H1993 | 0.868 | 0.869 | 0.845 | 0.615 | 0.863 | 0.639 | 0.397 | 0.711 | 0.49 | 0.267 | 0.595 | 0.635 | 0.576 | 0.454 | 0.448 | 0.701 | 0.585 | 0.627 | 0.395 | 0.391
17 | LOU-NH91 | 0.351 | 0.367 | 0.345 | 0.265 | 0.294 | 0.55 | 0.516 | 0.5 | 0.56 | 0.407 | 0.643 | 0.7 | 0.32 | 0.224 | 0.166 | 0.396 | 0.446 | 0.361 | 0.281 | 0.284
18 | SK-MES-1 | 0.737 | 0.837 | 0.677 | 0.298 | 0.252 | 0.357 | 0.289 | 0.309 | 0.257 | 0.155 | 0.935 | 0.933 | 0.882 | 0.315 | 0.127 | 0.956 | 1.02 | 0.915 | 0.211 | 0.167
19 | LCLC-103H | 0.948 | 0.875 | 1.02 | 0.911 | 0.969 | 0.44 | 0.438 | 0.491 | 0.422 | 0.349 |  | 0.485 | 0.251 | 0.147 | 0.128 | 0.46 | 0.483 | 0.47 | 0.559 | 0.317
20 | NCI-H1915 | 0.725 | 0.664 | 0.749 | 0.713 | 0.796 | 0.531 | 0.526 | 0.484 | 0.354 | 0.226 | 0.428 | 0.448 | 0.416 | 0.0502 | 0.0519 | 0.496 | 0.475 | 0.494 | 0.396 | 0.0489
21 | NCI-H1734 | 0.201 | 0.188 | 0.2 | 0.187 | 0.18 | 0.34 | 0.278 | 0.313 | 0.249 | 0.13 | 0.263 | 0.295 | 0.276 | 0.133 | 0.093 | 0.419 | 0.407 | 0.451 | 0.178 | 0.114
22 | NCI-H2170 | 0.624 | 0.592 | 0.761 | 0.588 | 0.652 | 0.401 | 0.396 | 0.387 | 0.31 | 0.144 | 0.658 | 0.718 | 0.783 | 0.178 | 0.145 | 0.271 | 0.256 | 0.286 | 0.263 | 0.136
23 | HCC-15 | 0.302 | 0.148 | 0.267 | 0.361 | 0.274 | 0.743 | 0.771 | 0.716 | 0.347 | 0.114 | 0.372 | 0.45 | 0.405 | 0.0716 | 0.0808 | 0.213 | 0.199 | 0.215 | 0.13 | 0.1
24 | SK-LU-1 | 0.195 | 0.205 | 0.173 | 0.173 | 0.11 | 0.453 | 0.368 | 0.457 | 0.248 | 0.155 | 0.284 | 0.362 | 0.282 | 0.102 | 0.1 | 0.911 | 0.984 | 0.704 | 0.188 | 0.161
25 | HCC-366 |  |  |  |  |  | 0.414 | 0.368 | 0.344 | 0.0349 | 0.019 | 0.13 | 0.115 | 0.094 | 0.0548 | 0.0273 | 0.149 | 0.173 | 0.207 | 0.149 | 0.0543
26 | NCI-H1648 |  |  |  |  |  | 0.262 | 0.25 | 0.238 | 0.256 | 0.271 | 0.439 | 0.396 | 0.262 | 0.453 | 0.257 | 0.62 | 0.592 | 0.753 | 0.468 | 0.334
27 | NCI-H1623 | 0.561 | 0.437 | 0.662 | 0.571 | 0.547 |  |  |  |  |  | 0.425 | 0.52 | 0.46 | 0.316 | 0.199 |  |  |  |  | 
28 | NCI-H596 | 1.04 | 0.852 | 0.859 | 0.611 | 0.574 |  |  |  |  |  | 0.82 | 0.949 | 0.753 | 0.188 | 0.155 | 0.487 | 0.488 | 0.45 | 0.268 | 0.221
29 | ABC-1 | 0.551 | 0.555 |  | 0.322 | 0.397 | 0.668 | 0.633 | 0.934 | 0.636 | 0.227 | 0.162 | 0.213 | 0.181 | 0.16 | 0.226 |  |  |  |  | 
